# Patent publication US20110039787A1, “COMPOSITIONS, KITS AND METHODS FOR TREATING BENIGN PROSTATE HYPERPLASIA” (priority 2009, published 2011)
# Square brackets hold non-standard residues; d marks the D form. Peptide text beside a SMILES is read from it. * marks the point of attachment. dPhe(4-NHCONH2) = NC(=O)Nc1ccc(C[C@@H](N)C(=O)O)cc1; Dihydroorotyl(S) = O=C1C[C@@H](C(=O)*)NC(=O)N1; dPhe(4-Cl) = N[C@H](Cc1ccc(Cl)cc1)C(=O)O; Phe(4-NH2) = Nc1ccc(C[C@H](N)C(=O)O)cc1; d2Nal = N[C@H](Cc1ccc2ccccc2c1)C(=O)O; Lys(iPr) = CC(C)NCCCC[C@H](N)C(=O)O; d3Pal = N[C@H](Cc1cccnc1)C(=O)O
# Key:
# testosterone = test: Serum testosterone concentration-time profile (LC-MS/MS); assay type: in vivo, men; settings: for Number of patients with testosterone below the castration level 0.5 ng/mL at one or more time-points / Percentage of patients with testosterone below the castration level 0.5 ng/mL at one or more time-points: up to Day 42; for Mean time to second return of testosterone to baseline interval (after the second administration): calculated, not measured values
# men with BPH [1] = settings: in vivo
# Experimental: The study population was men with BPH with: a prostate volume larger than 30 mL, a maximal uroflow of 12 mL/s (with some exceptions), an IPSS score of at least 13, serum prostatic specific antigen (PSA) below 10 ng/mL, and no evidence of prostate cancer. Altogether, 52 patients with BPH were randomly assigned to four parallel groups of 13 patients each.
# The patients were randomly allocated to receive either: one injection of 64 mg degarelix on Day 0 (hereinafter termed “64 mg”); one injection of 32 mg degarelix on Day 0 and one on Day 14 (hereinafter termed “32+32 mg”); one injection of 32 mg degarelix on Day 0 (hereinafter termed “32 mg”); or one injection of 16 mg degarelix on Day 0 and one on Day 14 (hereinafter termed “16+16 mg”).
# In order to evaluate the effects of degarelix on urinary morbidity, sexual function and overall quality of life (QoL) due to urinary condition, patient reported questionnaires (IPSS, IIEF, and IPSS-global QoL) were used. The questionnaires were answered by the patient at the clinic visits, in line with standard procedures.
# The IIEF questionnaire evaluated sexual dysfunction associated with treatment. […] Question numbers one to ten are scored on a six-point scale from zero ('No sexual activity') to five (Almost always to always'). Question numbers 11-15 are scored on a five-point scale from one (Almost never or never') to five (Almost always to always'). […]
# men with BPH [2] = test: Post-void residual volume by transabdominal ultrasound; assay type: in vivo; settings: all treatment groups
# Experimental: For each patient, the following parameters were measured or assessed (using the methods discussed below), at time points of screening day 0 (e.g., −7 days, “baseline”), day 14, day 28, and day 42:
# 2) Efficacy Endpoints—the measured Peak Urinary Flow, Post-void Residual Volume, and Prostate Volume.
# The Post-void Residual Volume (PVR) was evaluated by transabdominal ultrasound. The urine in the patient's bladder was sonicated from two directions perpendicular to one another resulting in three cursor positions set by the urologist. The volume was calculated automatically. The investigations were performed by urologists by methods known in the art.
# [3] = 16+16 mg, after the first administration
# [4] = 16+16 mg, after the second administration
# [5] = 32+32 mg, after the first administration
# [6] = 32+32 mg, after the second administration
# [7] = first dose of the 32+32 mg combined with the single dose 32 mg data
smiles,measurement,setting,value
"CC(=O)N[C@H](Cc1ccc2ccccc2c1)C(=O)N[C@H](Cc1ccc(Cl)cc1)C(=O)N[C@H](Cc1cccnc1)C(=O)N[C@@H](CO)C(=O)N[C@@H](Cc1ccc(NC(=O)[C@@H]2CC(=O)NC(=O)N2)cc1)C(=O)N[C@H](Cc1ccc(NC(N)=O)cc1)C(=O)N[C@@H](CC(C)C)C(=O)N[C@@H](CCCCNC(C)C)C(=O)N1CCC[C@H]1C(=O)N[C@H](C)C(N)=O [Degarelix, D-Alaninamide, N-acetyl-3-(2-naphthalenyl)-D-alanyl-4-chloro-D-phenylalanyl-3-(3-pyridinyl)-D-alanyl-L-seryl-4-[[[(4S)-hexahydro-2,6-dioxo-4-pyrimidinyl]carbonyl]amino]-L-phenylalanyl-4-[(aminocarbonyl)amino]-D-phenylalanyl-L leucyl-N6-(1-methylethyl)-L-lysyl-L-prolyl] (Ac-[d2Nal][dPhe(4-Cl)][d3Pal]S[Phe(4-NH2)](Dihydroorotyl(S))[dPhe(4-NHCONH2)]L[Lys(iPr)]P[dA]-NH2)",Greatest change from baseline in mean testosterone,testosterone; 32 mg,-4.2 ng/mL
same,Mean minimal value of testosterone (Cnadir),testosterone; 32 mg,0.9 ng/mL
same,Mean time-point (tnadir) to Cnadir of testosterone,testosterone; 32 mg,1.3 days
same,Lowest mean testosterone level,"testosterone; 32 mg, Day 1, SD 0.5",0.9 ng/mL
same,Mean testosterone level on Day 42,"testosterone; 32 mg, Day 42 (5.2 at baseline)",5.3 ng/mL
same,Mean time for first return of testosterone to baseline interval after the first administration,"testosterone; 32 mg, SD=5.2",9.1 days
same,Mean area of testosterone concentrations below 0.5 ng/mL,"testosterone; 32 mg, range 0.0-0.1",0.0 ng·days/mL
same,Number of patients with testosterone below the castration level 0.5 ng/mL at one or more time-points,testosterone; 32 mg,3 patients
same,Percentage of patients with testosterone below the castration level 0.5 ng/mL at one or more time-points,testosterone; 32 mg,25%
same,Greatest change from baseline in mean testosterone,testosterone; 64 mg,-4.7 ng/mL
same,Mean minimal value of testosterone (Cnadir),testosterone; 64 mg,0.4 ng/mL
same,Mean time-point (tnadir) to Cnadir of testosterone,testosterone; 64 mg,8.8 days
same,Lowest mean testosterone level,"testosterone; 64 mg, Day 1, SD 0.2",0.4 ng/mL
same,Mean testosterone level on Day 42,"testosterone; 64 mg, Day 42 (5.2 at baseline)",3.0 ng/mL
same,Patients still below testosterone 0.5 ng/mL on Day 42,"testosterone; 64 mg, Day 42, of the 8 patients suppressed",Five
same,Mean area of testosterone concentrations below 0.5 ng/mL,"testosterone; 64 mg, range 0.0-15.2",4.4 ng·days/mL
same,Number of patients with testosterone below the castration level 0.5 ng/mL at one or more time-points,testosterone; 64 mg,9 patients
same,Percentage of patients with testosterone below the castration level 0.5 ng/mL at one or more time-points,testosterone; 64 mg,69%
same,Greatest change from baseline in mean testosterone,testosterone; 16+16 mg,-4.0 ng/mL
same,Lowest mean testosterone level,"testosterone; 16+16 mg, Day 1, SD 0.5",1.4 ng/mL
same,Mean testosterone level on Day 42,"testosterone; 16+16 mg, Day 42 (5.5 at baseline)",4.5 ng/mL
same,Mean time for first return of testosterone to baseline interval after the first administration,"testosterone; 16+16 mg, SD=2.8",6.1 days
same,Mean time to second return of testosterone to baseline interval (after the second administration),"testosterone; 16+16 mg, SD=33.9",19.5 days
same,Mean minimal value of testosterone (Cnadir),testosterone; [3],1.4 ng/mL
same,Mean time-point (tnadir) to Cnadir of testosterone,testosterone; [3],1.1 days
same,Mean minimal value of testosterone (Cnadir),testosterone; [4],2.0 ng/mL
same,Mean time-point (tnadir) to Cnadir of testosterone,testosterone; [4],4.0 days
same,Mean area of testosterone concentrations below 0.5 ng/mL,"testosterone; 16+16 mg, range 0.0-0.0",0.0 ng·days/mL
same,Number of patients with testosterone below the castration level 0.5 ng/mL at one or more time-points,testosterone; 16+16 mg,2 patients
same,Percentage of patients with testosterone below the castration level 0.5 ng/mL at one or more time-points,testosterone; 16+16 mg,15%
same,Greatest change from baseline in mean testosterone,testosterone; 32+32 mg,-4.1 ng/mL
same,Lowest mean testosterone level,"testosterone; 32+32 mg, Day 17 (after second administration), SD 0.3",0.4 ng/mL
same,Subjects that had not regained testosterone levels >0.5 ng/mL at Day 42,"testosterone; 32+32 mg, Day 42",Three
same,Mean testosterone level on Day 42,"testosterone; 32+32 mg, Day 42 (4.5 at baseline)",2.7 ng/mL
same,Mean time for first return of testosterone to baseline interval after the first administration,"testosterone; 32+32 mg, SD=2.6",9.1 days
same,Mean time to second return of testosterone to baseline interval (after the second administration),"testosterone; 32+32 mg, SD=83.5",64.2 days
same,Mean minimal value of testosterone (Cnadir),testosterone; [5],0.6 ng/mL
same,Mean time-point (tnadir) to Cnadir of testosterone,testosterone; [5],3.2 days
same,Mean minimal value of testosterone (Cnadir),testosterone; [6],0.4 ng/mL
same,Mean time-point (tnadir) to Cnadir of testosterone,testosterone; [6],4.3 days
same,Mean area of testosterone concentrations below 0.5 ng/mL,"testosterone; 32+32 mg, range 0.0-15.3",2.8 ng·days/mL
same,Number of patients with testosterone below the castration level 0.5 ng/mL at one or more time-points,testosterone; 32+32 mg,9 patients
same,Percentage of patients with testosterone below the castration level 0.5 ng/mL at one or more time-points,testosterone; 32+32 mg,75%
same,"Number of patients castrated (testosterone below 0.5 ng/mL), for generally 2-4 days",testosterone; [7],8 patients
same,"Percentage of patients castrated (testosterone below 0.5 ng/mL), for generally 2-4 days",testosterone; [7],33%
same,Larger area below and longer time to return to the testosterone baseline interval,testosterone; groups given a total of 64 mg compared to the total dose 32 mg,more than 2 fold
same,Change of IIEF scores,men with BPH [1],mild decrease
same,Mean post-void residual volume,"men with BPH [2]; Day 14, apparent dose dependent way",decreased
same,Mean post-void residual volume versus baseline,men with BPH [2]; Day 42,lower than the baseline value
same,Number of patients in whom post-void residual volume had decreased compared to baseline,men with BPH [2]; Day 42,33 patients
same,Number of patients in whom post-void residual volume increased compared to baseline,men with BPH [2]; Day 42,17 patients
